From patent publication EP3011965B1, “SALVIA MILTIORRHIZA EXTRACT, MICROPELLET FORMULATION THEREOF, METHODS OF PREPARING SAME, AND USES THEREOF” (Tasly Pharmaceutical Group Co., Ltd., priority 2013, dated 2014)
Marks after values point to notes of the source that are not given here.

Tested on: zebra fish high blood lipid model
Assay: Quantitative evaluation of blood lipid lowering effect in zebra fish high blood lipid model
Format: in vivo, zebra fish of ALBINO strain
Conditions: 48 hours after treatment; for Blood lipid reducing rate: 0.081 µg/ml (text: 0.08 µg/ml), vs model group
Experimental: Animal: Zebra fish embryos were propagated by means of natural pair mating. Each mating, 4∼5 pairs of adult were prepared, and in average, each pair of zebra fish produced 200∼300 embryos. At 6th hour post-fertilization (6hpf) and 24hpf, the embryos were cleaned (removing dead embryo) and qualified embryos were selected according to embryo developing stage (Kimmel et al. 1995). At 28°C, embryos were incubated in fish-farming water, which contained 200mg instant soluble sea salt in 1L reverse osmosis water with conductivity of 480-510 µS/cm, pH of 6.9-7.2, hardness of 53.7-71.6 mg/L CaCO3. Feeding was required since 9 days post-fertilization (9dPf) because the embryos could get nutrients from their own yolk sac. After study, tricaine methane sulfonate (TMS) was used to overexpose the embryos in various developmental stages and the zebra fish were anesthetized and sacrificed. Sacrifice procedure was in light of the sacrifice-under-anesthesia regulatory requirement of AVMA (America Veterinary medical Association).
According to results of part A, the blood lipid lowering effect of Danshen extract in three concentrations was evaluated (usually at MNLC, 1/3MNLC and 1/10 MNLC), and 30 zebra fish treated in each concentration.
High-fat food was used to feed juvenile fish of zebra fish of ALBINO strain to induce zebra fish high blood lipid model.
After feeding, the zebra fish high blood lipid model was treated with tested drug for 48 hours.
Positive drug: lovastatin at 0.08 µg/ml.
After being treated with tested drugs, zebra fish were fat stained with fat-specific colorant.
Fifteen zebra fish were randomly selected in each concentration to observe intensity of zebra fish tail blood fat stain, pictured and saved.
Image -Pro Plus 6.0 image analytical software was used to analyze the image. The signal strength of zebra fish tail blood fat stain (S) was calculated and quantitatively analyzed. The statistical results were expressed as X ± SE. […]

## CC[C@H](C)C(=O)O[C@H]1C[C@@H](C)C=C2C=C[C@H](C)[C@H](CC[C@@H]3C[C@@H](O)CC(=O)O3)[C@H]21 [Lovastatin, lovastatin]
  Blood lipid reducing rate: 26.3* %
Listed as lovastatin
  Blood lipid reducing rate: 26.3%
0.081 µg/ml, Mean±SE
  Tail blood lipid IOD: 2142±109
